Experimental findings from patent publication US5703079A, “Tetrahydrofuran antifungals” (Schering Corporation, priority 1995, dated 1997) are described below.

The structures appear in SMILES notation. A value given as a limit tells only on which side of the number the result lay.

The subject of one data set is Aspergillus. The data set can be described thus: in vitro antifungal broth dilution, Aspergillus (37 strains). The data set is classed as cell-based, Aspergillus (flavus, fumigatus and other species). The settings on record: for percentages of strains with MICs ≤1 mcg/ml / percentages of strains with MFCs ≤1 mcg/ml: Aspergillus, 37 strains; for percentages of strains with MICs ≤1 mcg/ml: Table Q; for percentages of strains with MFCs ≤1 mcg/ml: Table R. (Dilution methods test growth across graded concentrations, often in twofold steps.)

In the next data set the test system is Candida albicans. Put plainly: in vitro antifungal broth dilution, Candida albicans (26 strains). The class given is cell-based. The settings on record: for percentages of strains with MICs ≤1 mcg/ml: Table Q; for percentages of strains with MFCs ≤1 mcg/ml: Table R; for MIC 90: Table S, MIC for 90% of the strains.
A further data set has as its system Candida krusei. Put plainly: in vitro antifungal broth dilution, Candida krusei (16 strains). The class given is cell-based. The settings on record: for percentages of strains with MICs ≤1 mcg/ml: Table Q; for percentages of strains with MFCs ≤1 mcg/ml: Table R.
In data set [1] the test system is Candida tropicalis & stellatoidea. The data set can be described thus: in vitro antifungal broth dilution, Candida tropicalis & stellatoidea (5 strains). The class given is cell-based. The note with it: for percentages of strains with MICs ≤1 mcg/ml: Table Q; for percentages of strains with MFCs ≤1 mcg/ml: Table R; for MIC 90: Table S, MIC for 90% of the strains.
Protocol: (§1) The in vitro antifungal activity tests were performed via conventional broth dilution methods in Sabouraud dextrose broth ("SDB") medium and Eagles Minimum Essential Medium ("EMEM") against a large number of fungi. Minimum Inhibitory Concentrations ("MICs") were measured after 24, 48 and 72 hour tests. In many cases, Minimum Fungicidial Concentrations ("MFCS") were measured after 48 and 72 hours.
A further data set deals with Candida glabrata. The data set can be described thus: in vitro antifungal broth dilution, Candida glabrata (9 strains). The data set is classed as cell-based. The settings on record: for percentages of strains with MICs ≤1 mcg/ml: Table Q; for percentages of strains with MFCs ≤1 mcg/ml: Table R; for MIC 90: Table S, MIC for 90% of the strains.
A further data set relates to Cryptococcus neoformans. The data set can be described thus: in vitro antifungal broth dilution, Cryptococcus neoformans (3 strains). The class given is cell-based. The note with it: for percentages of strains with MICs ≤1 mcg/ml: Table Q; for percentages of strains with MFCs ≤1 mcg/ml: Table R; for MIC 90: Table S, MIC for 90% of the strains.
A further data set relates to Dermatophytes. Put plainly: in vitro antifungal broth dilution, dermatophytes (6 strains). The class given is cell-based, T. rubrum, T. mentagrophytes, and T. tonsurans. The note with it: for percentages of strains with MICs ≤1 mcg/ml: Table Q; for percentages of strains with MFCs ≤1 mcg/ml: Table R.
A short description of data set [2]: serum levels, half lives and tissue distribution following oral dosing. The data set is classed as in vivo. The note with it: methyl cellulose formulation, mice, rats, dogs and monkeys.

Protocol for Aspergillus: as §1
Protocol for Candida albicans: as §1
Protocol for Candida glabrata: as §1
Protocol for Candida krusei: as §1
Protocol for Cryptococcus neoformans: as §1
Protocol for Dermatophytes: as §1

For the molecule `CCC(C(C)O)n1ncn(-c2ccc(N3CCN(c4ccc(OCC5COC(Cn6cncn6)(c6ccc(F)cc6F)C5)cc4)CC3)cc2)c1=O` (centres unmarked) [drawing 25], the “percentages of strains with MICs ≤1 mcg/ml” value with Aspergillus was found to be 100%; in the data set on Candida albicans, 100%; in the data set on Candida krusei it was 100%; in data set [1] it was 100%; with Candida glabrata it was 22%; with Cryptococcus neoformans, 100%. Moreover, in the data set on Dermatophytes, the “percentages of strains with MICs ≤1 mcg/ml” value is 100%. Moreover, the “percentages of strains with MFCs ≤1 mcg/ml” value worked out at 50% in the data set on Aspergillus (listed as drawing 29); 100% in the data set with Candida albicans; 88% in the data set on Candida krusei (listed as drawing 29); 100% in data set [1]; 22% in the data set with Candida glabrata; 100% with Cryptococcus neoformans. The “percentages of strains with MFCs ≤1 mcg/ml” value with Dermatophytes (listed as drawing 29) was 67%. Besides, the entries for the “MIC 90” value (in data set [1]; against Cryptococcus neoformans) were “.117 MCG/ML” and “.05 MCG/ML”, respectively.
In the case of `OC(Cn1cncn1)(Cn1cncn1)c1ccc(F)cc1F` [fluconazole, reference compound], the “percentages of strains with MICs ≤1 mcg/ml” value in the data set with Aspergillus is 0%; in the data set on Candida albicans it was 100%; in the data set on Candida krusei it was 0%; in data set [1] it was 100%; in the data set on Candida glabrata, 0%; in the data set with Cryptococcus neoformans, 0%. In addition, the “percentages of strains with MICs ≤1 mcg/ml” value in the data set on Dermatophytes is recorded as 100%. Besides, the “percentages of strains with MFCs ≤1 mcg/ml” value amounted to 0% in the data set on Aspergillus; 100% in the data set with Candida albicans; 0% with Candida krusei; 100% in data set [1]; 0% in the data set with Candida glabrata; 0% with Cryptococcus neoformans. For the same molecule, in the data set with Dermatophytes, the “percentages of strains with MFCs ≤1 mcg/ml” value is listed as 0%. In addition, in the data set on Aspergillus (SDB, 37 species of Aspergillus, compared to fluconazole, read-out: geometric mean MFC), the MFC (commonly the smallest concentration meeting the test's criterion for killing the fungus) was at least 32 µg/mL.
Regarding `CCC(C(C)O)n1ncn(-c2ccc(N3CCN(c4ccc(OCC5COC(Cn6cncn6)(c6ccc(F)cc6F)C5)cc4)CC3)cc2)c1=O` (centres unmarked) [drawing 24], the “serum levels compared to azoles of similar structure” value in data set [2] is “consistently higher serum levels”.
For the molecule `CCC(C(C)O)n1ncn(-c2ccc(N3CCN(c4ccc(OCC5COC(Cn6cncn6)(c6ccc(F)cc6F)C5)cc4)CC3)cc2)c1=O` (centres unmarked) [drawing 26], the “percentages of strains with MFCs ≤1 mcg/ml” value with Aspergillus (listed as drawing 30) is given as 62%; in the data set with Candida albicans it was 100%; in the data set on Candida krusei (listed as drawing 30) it was 94%; in data set [1] it was 100%; in the data set on Candida glabrata, 22%; with Cryptococcus neoformans, 100%. The “percentages of strains with MFCs ≤1 mcg/ml” value in the data set with Dermatophytes (listed as drawing 30) came out at 83%. Further, the “percentages of strains with MICs ≤1 mcg/ml” value in the data set on Candida albicans came out at 100%; in data set [1], 100%; with Candida glabrata, 22%; in the data set with Cryptococcus neoformans, 100%. Moreover, the “MIC 90” value is recorded as “.174 MCG/ML” against Candida albicans, “.117 MCG/ML” in data set [1], 17.1 MCG/ML with Candida glabrata and “.007 MCG/ML” in the data set on Cryptococcus neoformans.
For `CCC(C(C)O)n1ncn(-c2ccc(N3CCN(c4ccc(OCC5COC(Cn6cncn6)(c6ccc(F)cc6F)C5)cc4)CC3)cc2)c1=O` (centres unmarked) [drawing 27], the “percentages of strains with MFCs ≤1 mcg/ml” value in the data set on Aspergillus (listed as drawing 31) worked out at 89%; in the data set with Candida albicans, 100%; in the data set with Candida krusei (listed as drawing 31) it was 100%; in data set [1] it was 100%; in the data set with Candida glabrata it was 22%; with Cryptococcus neoformans it was 100%. In addition, in the data set with Dermatophytes (listed as drawing 31), the “percentages of strains with MFCs ≤1 mcg/ml” value is given as 100%. Also, the “percentages of strains with MICs ≤1 mcg/ml” value is given as 100% in the data set with Candida albicans, 100% in data set [1], 33% in the data set with Candida glabrata and 100% with Cryptococcus neoformans. For the same molecule, the “MIC 90” value is listed as “.139 MCG/ML” in the data set on Candida albicans, “.354 MCG/ML” in data set [1], 28.8 MCG/ML with Candida glabrata and “.101 MCG/ML” against Cryptococcus neoformans.
